Measurements taken from article PMC10042540, “Targeting oncogenic KRasG13C with nucleotide-based covalent inhibitors” (eLife, 2023).
pKd: −log10 of the molar value. Blank lines part the entries; values can stand above or below the molecule they belong to.

Tests used:
Rab21 = test: Covalent modification of protein controlled by ESI-MS; assay type: binding; conditions: compared to KRasG13C
nucleotide-free KRas = test: Stopped-flow competition with mantdGDP (association kinetics); assay type: binding; conditions: for kon: 25 °C, 1 µM KRas, 2 µM mantdGDP, 1, 2, 6 µM competing nucleotide, global fit
Protocol: The association kinetics of the nucleotide analogues were analyzed with a SX-20 stopped-flow instrument (Applied Photophysics) at 25 °C in a buffer consisting of 25 mM HEPES (pH 7.5), 100 mM NaCl, 1 mM MgCl2, and 0.5 mM TCEP. 1 µM of nucleotide-free KRas ([Müller et al., 2017]) in one syringe was mixed rapidly with 2 µM mantdGDP in the other. In subsequent experiments, the second syringe contained competing nucleotides (1, 2, and 6 µM) in addition to 2 µM mantdGDP. The resulting progress curves were globally fit using KinTek Explorer to obtain the corresponding association rate constants as previously described (Table 1—source data 1, Table 1—source data 2 [Johnson et al., 2009]).

[1] = system: T1, KRasG13C1-169 (Cys-light); test: Covalent modification of protein controlled by ESI-MS; assay type: binding
T1 construct: KRasWT1-169 and KRasG13C1-169 Cys-light (C51S C80L C118S) were expressed in BL21 (DE3) E. coli; hexahistidine (TEV site) (N, cleaved yes); made in house; host or cells: E. coli BL21 (DE3)
Protocol: After incubation at room temperature for the appropriate time, the modification of the protein was controlled by ESI-MS. For covalent modification of full-length KRasG13C, a nucleotide exchange with a 10-fold excess of the acryl-bearing nucleotides at pH 7.5 was first performed following incubation at room temperature for 24 h at pH 9.5 for covalent protein modification. Covalent protein modification was controlled by ESI-MS. The MS spectra were recorded on a VelosPro IonTrap (Thermo Scientific) with an EC 50/3 Nucleodur C18 1.8 μm column (Macherey and Nagel) and a gradient of the mobile phase A (0.1% formic acid in water) to B (0.1% formic acid in acetonitrile).

KRasWT1-169 = KRasWT1-169 (Homo sapiens, UniProt P01116); test: HPLC-based approach for determination of affinities relative to GDP; assay type: binding; conditions: KA = KA(GDP) x KrelA; GDP from KA = 1/KD
Protocol: The relative affinities of the nucleotide analogues were measured using an HPLC-based approach. 50 μM of […] was mixed with 50 μM of the acetamide derivatives and incubated either for 7 days at room temperature in the absence of EDTA, for 24 hr at 4 °C in the presence of 10 mM EDTA, or for 1 hr at room temperature in the presence of SOS in a buffer consisting of 20 mM HEPES (pH 7.5), 100 mM NaCl, 2 mM MgCl2, 1 mM TCEP and 5% glycerol. After incubation, the Ras proteins were washed five times with buffer (15 mL) using centrifugal filter devices to remove any unbound nucleotide, concentrated and analysed by isocratic HPLC runs. The resulting curves were analysed by integrating the corresponding peaks for GDP and the guanosine nucleotide analogues after distinct time points using the Agilent ChemStation Software (Table 1-source data 3, Table 1-source data 4). Based on the percentage distribution determined by the HPLC assay, the relative association constants (KrelA) for […] and bdaGDP could subsequently be calculated. In contrast, the superposition of the GDP signal prevented an exact determination of the relative association constant for […] values of 0.34 and 0.28 relative to GDP were determined for […] and bdaGDP, respectively. […] By rearranging the equilibrium reactions listed in (Equation 1a) and (Equation 1b), the following relationships are obtained for KGDP (Equation 2a) and […] Assuming that the concentration for aGDP used in the HPLC assay is 50 μM, the following GDP concentrations for […] (Equation 3a) and bdaGDP (Equation 3b) can be determined at time t=0 hr using the percentages determined in Table 1-source data 3:(3a) GDPtotal=%GDP/%[…]=37%/63%×50μM=29.4μM (3b) GDPtotal=%GDP/%bdaGDP=43%/57%×50μM=37.7μM The concentrations of the components listed in equation (Equation 2b) can be calculated as follows for […] (Equation 4a, Equation 4b, Equation 4c, Equation 4d) and bdaGDP (Equation 5a, Equation 5b, Equation 5c, Equation 5d) by considering the total GDP concentrations calculated previously:(4[…]]=47/100×29.4μM=13.8μM (4b) [Ras:GDP]=53/100×29.4μM=15.6μ[…]]=50μM-13.8μM=36.2μM (4d) [GDP]=29.4μM-15.6μM=13.8μM (5a) [Ras:bdaGDP]=39.5/100×37.7μM=14.9μM (5b) [Ras:GDP]=60.5/100×37.7μM=22.8μM (5c) [bdaGDP]=50μM-14.9μM=35.1μM (5d) [GDP]=37.7μM-22.8μM=14.9μM The relative association constant KrelA can be calculated by the following formula (Equation 6):(6) […] By inserting the concentrations of each component determined from (Equation 4a, Equation 4b, Equation 4c, Equation 4d) and (Equation 5a, Equation 5b, Equation 5c, Equation 5d) into (Equation 6), the relative association constants KrelA for […] (Equation 10a) and […]=1/0.136pM^-1=7.4pM (10b) KDbdaGDP=1/0.112pM^-1=8.9pM

KRas = molecular target: KRas; set-up: method as in Jeganathan et al., 2018; conditions: reference value for GDP; ref Jeganathan et al., 2018; cited from earlier work

Sequence of KRasWT1-169 (P01116 1-169): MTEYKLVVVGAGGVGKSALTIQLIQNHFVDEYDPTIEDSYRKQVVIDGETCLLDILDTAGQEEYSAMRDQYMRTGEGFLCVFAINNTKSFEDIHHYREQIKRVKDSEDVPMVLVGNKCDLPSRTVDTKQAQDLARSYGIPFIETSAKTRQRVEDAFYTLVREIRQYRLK

SMILES: C=CC(=O)NCCNC(=O)O[C@H]1[C@@H](O)[C@H](n2cnc3c(=O)[nH]c(N)nc32)O[C@@H]1COP(=O)(O)OP(=O)(O)O [edaGDP]
covalent modification of Rab21 (Rab21): comparable to KRasG13C
kon (nucleotide-free KRas): 3.73 µM^–1s^–1
covalent labelling of KRasG13C1-169 (Cys-light) ([1]; pH 7.5, after 24 hr): slight labelling
covalent labelling of KRasG13C1-169 (Cys-light) ([1]; pH 9.5, after 24 hr): ~100%

KA (KRasWT1-169): 0.4 pM⁻¹
SMILES: Nc1nc2c(ncn2[C@@H]2O[C@H](COP(=O)(O)OP(=O)(O)O)[C@@H](O)[C@H]2O)c(=O)[nH]1 [GDP, reference compound]
pKd (KRas): 11.60
kon (nucleotide-free KRas): 4.22 µM^–1s^–1
koff (nucleotide-free KRas; calculated kinetic parameter): 1.1x10^–5 s^–1
